± gives the expanded uncertainty stated by the source.
Legend:
[1] = Solid-liquid equilibrium temperature; conditions: 101.3 kPa, Conductivity measurements
[2] = excess molar enthalpy (molar enthalpy of mixing); xn = mol fraction of the nth substance listed; conditions: 505 K, 101 kPa, Liquid, Calvet calorimetry

## O=S(=O)([O-])O.[K+] [hydrogen potassium sulfate]
[1]; Crystal 1
  Solid-liquid equilibrium temperature: 488 ± 1 K

## O=S(=O)([O-])O.[Na+] [sulfuric acid, monosodium salt]
[1]; Crystal
  Solid-liquid equilibrium temperature: 458 ± 1 K

## O=S(=O)([O-])O.[Na+] [sulfuric acid, monosodium salt] + O=S(=O)([O-])O.[K+]
[2]; x2 = 0.1135
  excess molar enthalpy: -0.043 ± 0.0043 kcal/mol
[2]; x2 = 0.2137
  excess molar enthalpy: -0.1 ± 0.01 kcal/mol
[2]; x2 = 0.4029
  excess molar enthalpy: -0.126 ± 0.0127 kcal/mol
[2]; x2 = 0.4978
  excess molar enthalpy: -0.145 ± 0.0146 kcal/mol
[2]; x2 = 0.5883
  excess molar enthalpy: -0.143 ± 0.0143 kcal/mol
[2]; x2 = 0.7186
  excess molar enthalpy: -0.123 ± 0.0124 kcal/mol
[2]; x2 = 0.8521
  excess molar enthalpy: -0.069 ± 0.00693 kcal/mol
